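Each compound was tested at five concentrations against cells in 96-well plates for 48 hours. GI50 is the concentration that inhibits growth by half. TGI denotes the concentration required for complete inhibition of growth.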
Assays:
Test in all cases: DTP human tumour cell line panel, 48 h
OVCAR-3 ovarian = system: OVCAR-3 ovarian
CAKI-1 renal = system: CAKI-1 renal
NCI-H226 lung = system: NCI-H226 lung
IGROV1 ovarian = system: IGROV1 ovarian
SF-268 CNS = system: SF-268 CNS
OVCAR-8 ovarian = system: OVCAR-8 ovarian
OVCAR-5 ovarian = system: OVCAR-5 ovarian
UO-31 renal = system: UO-31 renal
MDA-MB-231 breast = system: MDA-MB-231 breast
HOP-92 NSCLC = system: HOP-92 NSCLC

## CC1=C[C@H]2C[C@H](C)[C@H]3CC[C@H](C)[C@]4(C1)C(=O)C(O)=C(C)C(=O)[C@@]324
OVCAR-3 ovarian
  GI50: 20 µM
  TGI: 64.6 µM
CAKI-1 renal
  GI50: 24.9 µM
  TGI: 66.1 µM
NCI-H226 lung
  GI50: 33 µM
  TGI: > 100 µM
IGROV1 ovarian
  GI50: 29.6 µM
  TGI: > 100 µM
SF-268 CNS
  GI50: > 100 µM
  TGI: > 100 µM
OVCAR-8 ovarian
  GI50: 40.4 µM
  TGI: > 100 µM
OVCAR-5 ovarian
  GI50: 20.4 µM
  TGI: 55.4 µM
UO-31 renal
  GI50: 29.8 µM
  TGI: > 100 µM
MDA-MB-231 breast
  GI50: 20.8 µM
  TGI: 65.7 µM

## CCCCCCCCCCCCCC(=O)CSCCNC(=O)CCNC(=O)[C@@H](O)C(C)(C)COP(=O)(O)OP(=O)(O)OCC1OC(n2cnc3c(N)ncnc32)C(O)C1OP(=O)(O)O (some centres undefined)
OVCAR-3 ovarian
  TGI: > 100 µM
NCI-H226 lung
  TGI: 35.7 µM
IGROV1 ovarian
  TGI: 28.6 µM
SF-268 CNS
  TGI: 47.7 µM
OVCAR-8 ovarian
  TGI: 83.5 µM
OVCAR-5 ovarian
  TGI: 83.1 µM
UO-31 renal
  TGI: 27.6 µM
HOP-92 NSCLC
  TGI: 24.5 µM

## COc1cc(C2C3=C(COC3=O)N(CCO)c3cc4c(cc32)OCO4)cc(OC)c1O (centres undefined)
OVCAR-3 ovarian
  GI50: 0.982 µM
  TGI: 2.22 µM
CAKI-1 renal
  GI50: 5.4 µM
  TGI: > 41 µM
NCI-H226 lung
  GI50: 3.72 µM
  TGI: > 50 µM
IGROV1 ovarian
  GI50: 1.47 µM
  TGI: 6.08 µM
SF-268 CNS
  GI50: 2.18 µM
  TGI: > 50 µM
OVCAR-8 ovarian
  GI50: 3.17 µM
  TGI: > 50 µM
OVCAR-5 ovarian
  GI50: 23.1 µM
  TGI: > 50 µM
UO-31 renal
  GI50: 2.02 µM
  TGI: > 37.2 µM
MDA-MB-231 breast
  GI50: 6.07 µM
  TGI: 46.2 µM

## Cc1cc(Nc2cc(N3CCN(C)CC3)nc(Sc3ccc(NC(=O)C4CC4)cc3)n2)n[nH]1
OVCAR-3 ovarian
  GI50: 3.46 µM
  TGI: > 10 µM
CAKI-1 renal
  GI50: 4.27 µM
  TGI: > 10 µM
NCI-H226 lung
  GI50: 0.737 µM
  TGI: > 10 µM
IGROV1 ovarian
  GI50: 4.82 µM
  TGI: > 10 µM
SF-268 CNS
  GI50: 5.52 µM
  TGI: > 10 µM
OVCAR-8 ovarian
  GI50: 7.54 µM
  TGI: > 10 µM
UO-31 renal
  GI50: 3.54 µM
  TGI: > 10 µM
HOP-92 NSCLC
  GI50: 0.989 µM
  TGI: 5.77 µM
MDA-MB-231 breast
  GI50: 3.98 µM
  TGI: > 10 µM

## Cn1c(=O)c2[nH]cnc2n(CC(N)=O)c1=O
OVCAR-3 ovarian
  TGI: > 100 µM
CAKI-1 renal
  TGI: > 100 µM
IGROV1 ovarian
  TGI: > 100 µM
SF-268 CNS
  TGI: > 100 µM
OVCAR-8 ovarian
  TGI: > 100 µM
UO-31 renal
  TGI: > 100 µM
HOP-92 NSCLC
  TGI: > 100 µM

## O=C1c2ccccc2C(=O)c2c(NCC3CO3)ccc(NCC3CO3)c21 (centres undefined)
OVCAR-3 ovarian
  TGI: 15.1 µM
CAKI-1 renal
  TGI: 7.79 µM
NCI-H226 lung
  TGI: 35.4 µM
IGROV1 ovarian
  TGI: 15.9 µM
OVCAR-8 ovarian
  TGI: 2.49 µM
OVCAR-5 ovarian
  TGI: > 65.8 µM
UO-31 renal
  TGI: 5.13 µM
HOP-92 NSCLC
  TGI: 38 µM
MDA-MB-231 breast
  TGI: 14.8 µM

## CN(C)CCNC(=O)c1cccc2ccc(-c3ccc(-c4ccccc4)cc3)nc12
OVCAR-3 ovarian
  TGI: 12 µM
CAKI-1 renal
  TGI: 11 µM
NCI-H226 lung
  TGI: 30.1 µM
IGROV1 ovarian
  TGI: > 44.9 µM
SF-268 CNS
  TGI: 10.4 µM
OVCAR-8 ovarian
  TGI: 7.66 µM
OVCAR-5 ovarian
  TGI: 13.9 µM
UO-31 renal
  TGI: 24.7 µM
HOP-92 NSCLC
  TGI: 11.8 µM

## COC(=O)/C=c1\s/c(=C\C(=O)OC)c2ccccc12
OVCAR-3 ovarian
  TGI: > 100 µM
CAKI-1 renal
  TGI: > 100 µM
NCI-H226 lung
  TGI: > 100 µM
IGROV1 ovarian
  TGI: > 100 µM
SF-268 CNS
  TGI: > 100 µM
OVCAR-8 ovarian
  TGI: > 100 µM
OVCAR-5 ovarian
  TGI: > 100 µM
UO-31 renal
  TGI: > 100 µM
HOP-92 NSCLC
  TGI: > 100 µM

## Cc1ccc(C)c(NC(=O)CC2SC(=Nc3ccccc3Cl)NC2=O)c1 (centres undefined)
OVCAR-3 ovarian
  TGI: > 100 µM
CAKI-1 renal
  TGI: > 100 µM
NCI-H226 lung
  TGI: > 100 µM
IGROV1 ovarian
  TGI: > 100 µM
SF-268 CNS
  TGI: > 100 µM
OVCAR-8 ovarian
  TGI: > 100 µM
OVCAR-5 ovarian
  TGI: > 100 µM
UO-31 renal
  TGI: > 100 µM
HOP-92 NSCLC
  TGI: > 100 µM

## CCN(CC)CCn1[nH]c2c3ccc(=O)cc3sc3c(NCCN)ccc1c32
OVCAR-3 ovarian
  TGI: 8.17 µM
CAKI-1 renal
  TGI: 11.5 µM
IGROV1 ovarian
  TGI: 8.57 µM
SF-268 CNS
  TGI: > 100 µM
OVCAR-8 ovarian
  TGI: 12.7 µM
OVCAR-5 ovarian
  TGI: 4.87 µM
UO-31 renal
  TGI: 52.1 µM
HOP-92 NSCLC
  TGI: 3.96 µM

## CCCCCCCC(=O)OCC(=O)[C@]1(O)Cc2c(O)c3c(c(O)c2[C@@H](OC2CC(N)C(O)C(C)O2)C1)C(=O)c1c(OC)cccc1C3=O (some centres undefined)
CAKI-1 renal
  GI50: 0.558 µM
  TGI: 2.43 µM
OVCAR-5 ovarian
  GI50: 0.422 µM
  TGI: 1.24 µM
MDA-MB-231 breast
  GI50: 0.578 µM
  TGI: 2.17 µM

## C=C(C)C(=O)O[C@@H]1C/C(C)=C\[C@H](OC(C)=O)C[C@](C)(O)/C=C2/OC(=O)C(COC(C)=O)=C21
CAKI-1 renal
  TGI: 0.99 µM
NCI-H226 lung
  TGI: 6.17 µM
IGROV1 ovarian
  TGI: 3 µM
OVCAR-8 ovarian
  TGI: 2.75 µM
OVCAR-5 ovarian
  TGI: 4.55 µM
UO-31 renal
  TGI: 3.26 µM
HOP-92 NSCLC
  TGI: 37.5 µM
MDA-MB-231 breast
  TGI: 2.63 µM

## C=CCOC(=O)C1CCC(=O)N1C(=O)C(Cl)Cl (centres undefined)
OVCAR-3 ovarian
  TGI: > 100 µM
CAKI-1 renal
  TGI: > 100 µM
NCI-H226 lung
  TGI: > 100 µM
IGROV1 ovarian
  TGI: > 100 µM
SF-268 CNS
  TGI: > 100 µM
OVCAR-8 ovarian
  TGI: > 100 µM
OVCAR-5 ovarian
  TGI: > 100 µM
UO-31 renal
  TGI: > 100 µM
HOP-92 NSCLC
  TGI: > 100 µM

## COc1ccc(Cn2cc3c(c2-c2ccccc2)CCc2cnoc2-3)cc1N
OVCAR-3 ovarian
  GI50: 0.0526 µM
  TGI: 0.244 µM
CAKI-1 renal
  GI50: 0.116 µM
  TGI: > 100 µM
NCI-H226 lung
  GI50: 2.24 µM
  TGI: > 100 µM
IGROV1 ovarian
  GI50: 0.329 µM
  TGI: > 100 µM
SF-268 CNS
  GI50: 0.812 µM
  TGI: > 100 µM
OVCAR-8 ovarian
  GI50: 0.468 µM
  TGI: > 100 µM
OVCAR-5 ovarian
  GI50: 0.629 µM
  TGI: > 100 µM
UO-31 renal
  GI50: 0.967 µM
  TGI: > 100 µM
MDA-MB-231 breast
  GI50: 1.03 µM
  TGI: > 100 µM

## CCN1C[C@]2(COC)[C@H](O)C[C@H](OC)[C@]34C1[C@H]([C@H](OC)[C@H]23)[C@]1(OC(C)=O)[C@H]2[C@@H](OC(=O)c3ccccc3)[C@](O)(C[C@H]24)[C@@H](OC)[C@@H]1O
CAKI-1 renal
  TGI: > 100 µM
NCI-H226 lung
  TGI: > 100 µM
IGROV1 ovarian
  TGI: > 100 µM
SF-268 CNS
  TGI: > 100 µM
OVCAR-8 ovarian
  TGI: > 100 µM
OVCAR-5 ovarian
  TGI: > 100 µM
UO-31 renal
  TGI: > 100 µM
HOP-92 NSCLC
  TGI: > 100 µM
MDA-MB-231 breast
  TGI: > 100 µM

## N#Cc1ccc2cc3c(cc2c1)OCO3
OVCAR-3 ovarian
  TGI: > 100 µM
NCI-H226 lung
  TGI: > 100 µM
IGROV1 ovarian
  TGI: > 100 µM
SF-268 CNS
  TGI: > 100 µM
OVCAR-5 ovarian
  TGI: > 100 µM
UO-31 renal
  TGI: 89.3 µM
HOP-92 NSCLC
  TGI: > 100 µM

## COC1C2c3cc4c(cc3CC(C#N)(c3ccccc32)N1C(=O)c1ccccc1)OCO4 (centres undefined)
OVCAR-3 ovarian
  TGI: > 100 µM
NCI-H226 lung
  TGI: > 100 µM
IGROV1 ovarian
  TGI: > 100 µM
SF-268 CNS
  TGI: > 100 µM
OVCAR-8 ovarian
  TGI: > 100 µM
OVCAR-5 ovarian
  TGI: > 100 µM
UO-31 renal
  TGI: > 100 µM
HOP-92 NSCLC
  TGI: > 100 µM

## O=C(CCc1nnc2s/c(=C\c3ccccc3Cl)c(=O)n12)Nc1cc(Cl)ccc1Cl
OVCAR-3 ovarian
  TGI: > 100 µM
CAKI-1 renal
  TGI: > 100 µM
NCI-H226 lung
  TGI: > 100 µM
IGROV1 ovarian
  TGI: > 100 µM
SF-268 CNS
  TGI: > 100 µM
OVCAR-8 ovarian
  TGI: > 100 µM
OVCAR-5 ovarian
  TGI: > 100 µM
UO-31 renal
  TGI: > 100 µM
HOP-92 NSCLC
  TGI: > 100 µM

## CN(/N=C/c1cccc2cccnc12)c1c([N+](=O)[O-])cc([N+](=O)[O-])cc1[N+](=O)[O-]
OVCAR-3 ovarian
  TGI: > 100 µM
CAKI-1 renal
  TGI: > 100 µM
NCI-H226 lung
  TGI: > 100 µM
IGROV1 ovarian
  TGI: > 100 µM
SF-268 CNS
  TGI: > 100 µM
OVCAR-8 ovarian
  TGI: > 100 µM
OVCAR-5 ovarian
  TGI: > 100 µM
HOP-92 NSCLC
  TGI: > 100 µM

## Oc1[nH]c2ccccc2c1N=Nc1c(F)c(F)c(F)c(F)c1F
OVCAR-3 ovarian
  TGI: > 100 µM
CAKI-1 renal
  TGI: > 64.3 µM
NCI-H226 lung
  TGI: > 100 µM
IGROV1 ovarian
  TGI: > 100 µM
SF-268 CNS
  TGI: > 100 µM
OVCAR-8 ovarian
  TGI: > 100 µM
OVCAR-5 ovarian
  TGI: > 100 µM
UO-31 renal
  TGI: > 91.8 µM
MDA-MB-231 breast
  TGI: > 100 µM
